Measurements taken from PubChem BioAssay AID504561 (Southern Research Specialized Biocontainment Screening …, 2011).
pIC50: −log10 of the molar value.

system: HeLa-CD4-LTR-beta-gal/HL2/3 cell fusion, beta-gal luminescence; assay: inhibitors of CXCR4-tropic HIV-1 Env cell-cell fusion, dose response, HL2/3 with HeLa-CD4 reporter cells, 2% serum, set 2 (AID 504561)

Row | SMILES | pIC50
1 | Cc1c2c(=O)n(-c3nc4ccccc4s3)nc-2cc(O)n1CCc1ccc(O)cc1 | 5.01
2 | Cc1c2c(=O)n(-c3nc4ccccc4s3)nc-2cc(O)n1Cc1ccccc1 | 4.56
3 | COc1ccc(Cn2c(O)cc3nn(-c4nc5ccccc5s4)c(=O)c-3c2C)cc1 | 5.10
4 | COc1ccc(CCn2c(O)cc3nn(-c4nc5ccccc5s4)c(=O)c-3c2C)cc1 | 5.16
5 | Cc1c2c(=O)n(-c3nc4ccccc4s3)nc-2cc(O)n1Cc1ccncc1 | 5.02
6 | Cc1c2c(=O)n(-c3nc4ccccc4s3)nc-2cc(O)n1CCc1cccs1 | 5.15

Molecules with a higher pIC50, results first:

Row | pIC50 | SMILES
7 | 5.24 | Cc1c2c(=O)n(-c3nc4ccccc4s3)nc-2cc(O)n1Cc1cccnc1
8 | 5.27 | Cc1c2c(=O)n(-c3nc4ccccc4s3)nc-2cc(O)n1Cc1ccccc1Cl
9 | 5.28 | Cc1c2c(=O)n(-c3nc4ccccc4s3)nc-2cc(O)n1CCC(C)C
10 | 5.32 | Cc1c2c(=O)n(-c3nc4ccccc4s3)nc-2cc(O)n1Cc1cccs1
11 | 5.34 | COc1ccccc1Cn1c(O)cc2nn(-c3nc4ccccc4s3)c(=O)c-2c1C
12 | 5.41 | Cc1c2c(=O)n(-c3nc4ccccc4s3)nc-2cc(O)n1Cc1ccc(F)cc1
13 | 5.45 | Cc1c2c(=O)n(-c3nc4ccccc4s3)nc-2cc(O)n1C1CC1
